The supplement of paper PMC11451515

Test system: P12-Ichikawa
Experiment: cell viability relative to DMSO control; higher = less cytotoxic
Conditions: 48 h
Outline: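 Three leukemia lines were tested: NOMO1 and SEM at 500 cells/well and P12-Ichikawa at 1000 cells/well. Each was adapted for at least four passages in each medium and seeded in 5 μl in 1536-well plates, and library compounds in DMSO were pin-dosed from 47 μM to 0.79 nM in 11 threefold steps. After 48 h at 37°C, CellTiter-Glo One luminescence was read. Viability is a percentage relative to DMSO wells on each plate, with cell-free wells as background.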

[1] = HPLM + 10% dialyzed FBS, 0.000781 µM
[2] = HPLM + 10% dialyzed FBS, 0.00234 µM
[3] = HPLM + 10% dialyzed FBS, 0.00702 µM
[4] = HPLM + 10% dialyzed FBS, 0.0211 µM
[5] = HPLM + 10% dialyzed FBS, 0.0632 µM
[6] = HPLM + 10% dialyzed FBS, 0.19 µM
[7] = HPLM + 10% dialyzed FBS, 0.569 µM
[8] = HPLM + 10% dialyzed FBS, 1.71 µM
[9] = HPLM + 10% dialyzed FBS, 5.12 µM
[10] = HPLM + 10% dialyzed FBS, 15.4 µM
[11] = HPLM + 10% dialyzed FBS, 46.1 µM
[12] = RPMI 5 mM glucose + 10% FBS, 0.000781 µM
[13] = RPMI 5 mM glucose + 10% FBS, 0.00234 µM
[14] = RPMI 5 mM glucose + 10% FBS, 0.00702 µM
[15] = RPMI 5 mM glucose + 10% FBS, 0.0211 µM
[16] = RPMI 5 mM glucose + 10% FBS, 0.0632 µM
[17] = RPMI 5 mM glucose + 10% FBS, 0.19 µM
[18] = RPMI 5 mM glucose + 10% FBS, 0.569 µM
[19] = RPMI 5 mM glucose + 10% FBS, 1.71 µM
[20] = RPMI 5 mM glucose + 10% FBS, 5.12 µM
[21] = RPMI 5 mM glucose + 10% FBS, 15.4 µM
[22] = RPMI 5 mM glucose + 10% FBS, 46.1 µM
[23] = RPMI 5 mM glucose + 10% dialyzed FBS, 0.000781 µM
[24] = RPMI 5 mM glucose + 10% dialyzed FBS, 0.00234 µM
[25] = RPMI 5 mM glucose + 10% dialyzed FBS, 0.00702 µM
[26] = RPMI 5 mM glucose + 10% dialyzed FBS, 0.0211 µM
[27] = RPMI 5 mM glucose + 10% dialyzed FBS, 0.0632 µM
[28] = RPMI 5 mM glucose + 10% dialyzed FBS, 0.19 µM
[29] = RPMI 5 mM glucose + 10% dialyzed FBS, 0.569 µM
[30] = RPMI 5 mM glucose + 10% dialyzed FBS, 1.71 µM
[31] = RPMI 5 mM glucose + 10% dialyzed FBS, 5.12 µM
[32] = RPMI 5 mM glucose + 10% dialyzed FBS, 15.4 µM
[33] = RPMI 5 mM glucose + 10% dialyzed FBS, 46.1 µM

Which results are given for `COc1cc(C(=O)NS(=O)(=O)c2ccccc2C)ccc1Cc1cn(C)c2ccc(NC(=O)OC3CCCC3)cc12`?
cell viability [1]: 73.2%; cell viability [2]: 81.6%; cell viability [3]: 85.9%; cell viability [4]: 90.7%; cell viability [5]: 89.8%; cell viability [6]: 86.6%; cell viability [7]: 86.5%; cell viability [8]: 89.1%; cell viability [9]: 88.8%; cell viability [10]: 104%; cell viability [11]: 72.3%; cell viability [12]: 82.7%; cell viability [13]: 78.3%; cell viability [14]: 79.2%; cell viability [15]: 88.1%; cell viability [16]: 77.8%; cell viability [17]: 83.6%; cell viability [18]: 84.4%; cell viability [19]: 85%; cell viability [20]: 90.1%; cell viability [21]: 87%; cell viability [22]: 5.73%; cell viability [23]: 76.9%; cell viability [24]: 74%; cell viability [25]: 76.6%; cell viability [26]: 81.6%; cell viability [27]: 83.8%; cell viability [28]: 78.3%; cell viability [29]: 89.6%; cell viability [30]: 82.3%; cell viability [31]: 92.5%; cell viability [32]: 87.4%; cell viability [33]: 44.2%

How did the cell viability [1] turn out when `Cc1onc(-c2ccccc2)c1C(=O)N[C@@H]1C(=O)N2[C@@H]1SC(C)(C)[C@@H]2C(=O)[O-].[Na+]` was run?
Its cell viability is 109%.

And the cell viability [2]?
The cell viability was 116%.

And the cell viability [3]?
Its cell viability is 120%.

What about the cell viability [4] of the same molecule?
The cell viability was 108%.

And the cell viability [5]?
The cell viability was 116%.

And the cell viability [6]?
Its cell viability is 113%.

What about the cell viability [7] of the same molecule?
The cell viability was 113%.

What about the cell viability [8] of the same molecule?
The cell viability was 104%.

What about the cell viability [9] of the same molecule?
Its cell viability is 86.4%.

And the cell viability [10]?
Its cell viability is 81.3%.

What about the cell viability [11] of the same molecule?
Its cell viability is 77.2%.

And the cell viability [12]?
The cell viability was 114%.

What about the cell viability [13] of the same molecule?
The cell viability was 117%.

And the cell viability [14]?
The cell viability was 111%.

What about the cell viability [15] of the same molecule?
Its cell viability is 111%.

And the cell viability [16]?
The cell viability was 130%.

And the cell viability [17]?
The cell viability was 122%.

And the cell viability [18]?
The cell viability was 112%.

And the cell viability [19]?
The cell viability was 85.3%.

What about the cell viability [20] of the same molecule?
The cell viability was 71%.

And the cell viability [21]?
The cell viability was 71.8%.

And the cell viability [22]?
The cell viability was 68.2%.

And the cell viability [23]?
The cell viability was 104%.

And the cell viability [24]?
Its cell viability is 112%.

What about the cell viability [25] of the same molecule?
Its cell viability is 131%.

And the cell viability [26]?
The cell viability was 139%.

And the cell viability [27]?
Its cell viability is 123%.

And the cell viability [28]?
The cell viability was 100%.

And the cell viability [29]?
Its cell viability is 92.7%.

And the cell viability [30]?
Its cell viability is 89.6%.

What about the cell viability [31] of the same molecule?
Its cell viability is 75.9%.

And the cell viability [32]?
Its cell viability is 62.4%.

What about the cell viability [33] of the same molecule?
The cell viability was 67.8%.

For `CCCC1OC2C[C@H]3[C@@H]4CCC5=CC(=O)C=C[C@]5(C)[C@H]4C(O)C[C@]3(C)[C@]2(C(=O)CO)O1` (some centres not stated), which cell viability [1] is on record?
Its cell viability is 114%.

What about the cell viability [2] of the same molecule?
The cell viability was 120%.

What about the cell viability [3] of the same molecule?
The cell viability was 109%.

And the cell viability [4]?
The cell viability was 95.8%.

What about the cell viability [5] of the same molecule?
Its cell viability is 79%.

And the cell viability [6]?
Its cell viability is 68.7%.

What about the cell viability [7] of the same molecule?
The cell viability was 67.3%.

What about the cell viability [8] of the same molecule?
Its cell viability is 64%.

What about the cell viability [9] of the same molecule?
The cell viability was 64.9%.

And the cell viability [10]?
The cell viability was 60%.

And the cell viability [11]?
Its cell viability is 49%.

And the cell viability [12]?
Its cell viability is 116%.

And the cell viability [13]?
Its cell viability is 114%.

And the cell viability [14]?
Its cell viability is 99.1%.

And the cell viability [15]?
The cell viability was 90%.

And the cell viability [16]?
Its cell viability is 70.6%.

And the cell viability [17]?
The cell viability was 57.8%.

And the cell viability [18]?
The cell viability was 57.6%.

What about the cell viability [19] of the same molecule?
The cell viability was 50.1%.

What about the cell viability [20] of the same molecule?
The cell viability was 51.2%.

What about the cell viability [21] of the same molecule?
The cell viability was 51.3%.

What about the cell viability [22] of the same molecule?
The cell viability was 39.7%.

What about the cell viability [23] of the same molecule?
Its cell viability is 116%.

And the cell viability [24]?
The cell viability was 108%.

What about the cell viability [25] of the same molecule?
The cell viability was 90.4%.

And the cell viability [26]?
Its cell viability is 76.7%.

What about the cell viability [27] of the same molecule?
The cell viability was 60%.

And the cell viability [28]?
The cell viability was 47.5%.

And the cell viability [29]?
Its cell viability is 44.1%.

What about the cell viability [30] of the same molecule?
Its cell viability is 43%.

And the cell viability [31]?
Its cell viability is 42%.

And the cell viability [32]?
The cell viability was 37.5%.

What about the cell viability [33] of the same molecule?
Its cell viability is 28.4%.

Which results are given for `Cc1nc(Nc2n[nH]c3c2CN(C(=O)N[C@H](CN(C)C)c2ccccc2)C3(C)C)c2sccc2n1`?
cell viability [1]: 84.9%; cell viability [2]: 84.7%; cell viability [3]: 76.4%; cell viability [4]: 81%; cell viability [5]: 75.1%; cell viability [6]: 73.5%; cell viability [7]: 72.6%; cell viability [8]: 53.9%; cell viability [9]: 52.3%; cell viability [10]: 45.4%; cell viability [11]: 15.6%; cell viability [12]: 82.3%; cell viability [13]: 81.7%; cell viability [14]: 70.8%; cell viability [15]: 60%; cell viability [16]: 62.3%; cell viability [17]: 59.3%; cell viability [18]: 53.4%; cell viability [19]: 38.5%; cell viability [20]: 41.4%; cell viability [21]: 27.7%; cell viability [22]: 12.8%; cell viability [23]: 80%; cell viability [24]: 81.4%; cell viability [25]: 77.2%; cell viability [26]: 72.1%; cell viability [27]: 63.6%; cell viability [28]: 56%; cell viability [29]: 51.4%; cell viability [30]: 40.6%; cell viability [31]: 38.8%; cell viability [32]: 32.3%; cell viability [33]: 15.8%
